Results taken from ChEMBL document CHEMBL1201862, “PubChem BioAssay data set” (2004).
Active and inactive are the calls of the source.

How the values were obtained:
[1] = molecular target: T1, Beta-lactamase (Pseudomonas aeruginosa, UniProt Q79MP6); test: […] counterscreen for selective VIM-2 inhibitors: dose response biochemical high throughput screening assay to identify inhibitors of IMP-1 metallo-beta-lactamase.
[2] = molecular target: Beta-lactamase (Salmonella choleraesuis (strain SC-B67), UniProt Q5J463); test: Epi-absorbance-based counterscreen for selective VIM-2 inhibitors: dose response biochemical high throughput screening assay to identify inhibitors of TEM-1 serine-beta-lactamase.
[3] = molecular target: T1, Beta-lactamase; test: inhibition of IMP-1 beta-lactamase activity – biochemical, epi-absorbance, selectivity assay for VIM-2 inhibitor project, dose response (AID 1920)
[4] = molecular target: Disintegrin and metalloproteinase domain-containing protein 17 (Homo sapiens, UniProt P78536); test: inhibition of ADAM17 substrate cleavage – biochemical, quenched FRET substrate, counter-screen for ADAM10 exosite inhibitor project, dose response (AID 743253)
[5] = potency of ADAM10 substrate cleavage blockers – biochemical, QFRET, dose response (AID 743254);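 also: ADAM10 enzyme with the DM2 quenched FRET peptide as substrate; EDANS fluorescence gain as the protease cuts the substrate; inhibitor potency against ADAM10 proteolytic activity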
[6] = cells
[7] = molecular target: Major prion protein (Homo sapiens, UniProt P04156); format: functional, cell-based
[8] = A cytotoxicity screen of small molecule inhibitors of the PhoP region in Salmonella typhi identified in the primary screen. [Related pubchem assays: 1850, 1864, 1985 ]; format: functional
[9] = system: Vero; test: viability loss in Vero cells – cell-based, plate reader, cherry-pick samples, cytotoxicity control, dose response (AID 687020); format: functional; settings: Chlorocebus sabaeus
[10] = molecular target: Fructose-bisphosphate aldolase (Mycobacterium tuberculosis, UniProt P9WQA3); test: Fluorescence-based biochemical high throughput dose response assay for inhibitors of the fructose-bisphosphate aldolase (FBA) of M. tuberculosis.; format: functional
[11] = cells; format: functional, cell-based; settings: HEK-CNG
[12] = molecular target: Galanin receptor type 3 (Homo sapiens, UniProt O60755); test: Fluorescence-based cell-based primary high throughput dose response assay to identify antagonists of the Galanin Receptor 3 (GalR3).; format: functional
[13] = Late stage assay provider results from the probe development effort to identify selective inhibitors of heat shock protein 90 (HSP90): Absorbance-based cell proliferation assay in SKBR3 cells.; format: functional; settings: SK-BR-3
[14] = Late stage assay provider results from the probe development effort to identify selective inhibitors of heat shock protein 90 (HSP90): Absorbance-based cell proliferation assay in MCF7 cells.; format: functional
[15] = molecular target: Heat shock protein HSP 90-alpha (Homo sapiens, UniProt P07900); test: Luminescence-based dose response biochemical high throughput screening assay for inhibitors of the Heat Shock Protein 90 (HSP90). [Related pubchem assays: 1831 (Summary AID.), 1846 (Confirmation screen.), 1789 (Primary screen.)]
[16] = off-target signal loss in HeLa-CEM21 co-culture – HeLa F-luc CTL cells, cherry-picked, counter-screen for HIV-1 Env fusion inhibitor project, dose response (AID 652040); format: functional, cell-based;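 also: potency for signal decrease marking cytotoxic or nonspecific inhibition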
[17] = microbe, parasite or virus in culture; format: functional; settings: Mycobacterium tuberculosis
[18] = HIV-1 AD8 envelope cell-cell fusion blockers – cherry-pick, dose response (AID 652062); format: functional, cell-based;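 also: luciferase signal from cell-cell fusion driven by HIV-1 clade B AD8 Env; potency is for inhibitors of fusion seen as a drop in luminescence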
[19] = blockers of HIV-1 envelope-mediated cell-cell fusion – cherry-pick, dose response (AID 652057); format: functional, cell-based
[20] = system: Escherichia coli; test: microbe, parasite or virus in culture
[21] = viability loss in CEM21 cells – cell-based, CellTiter-Glo luminescence, cherry-picked, cytotoxicity control for viral fusion inhibitor project, dose response (AID 652042); format: functional;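 also: potency for signal decrease meaning cytotoxicity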
[22] = molecular target: 5-hydroxytryptamine receptor 2A (Mus musculus, UniProt P35363); format: functional, cell-based;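 also: CHO-K1 cells with tagged receptor and beta-arrestin; agonist potency measured as compound-induced activation of the receptor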
[23] = molecular target: Mu-type opioid receptor (Homo sapiens, UniProt P35372); format: functional, cell-based;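 also: U2OS cells with beta-arrestin recruitment to OPRM1 by beta-gal complementation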
[24] = system: Escherichia coli; test: microbe, parasite or virus in culture; remark: listed apart in the source
[25] = blockers of HIV-1 ZM109 envelope-driven cell-cell fusion – HeLa effector, CEM target cells, luciferase, cherry-pick, dose response (AID 652058); format: functional, cell-based;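 also: luciferase signal from HIV-1 Env mediated cell-cell fusion of effector and target cells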
[26] = molecular target: Dual specificity tyrosine-phosphorylation-regulated kinase 1A (Rattus norvegicus, UniProt Q63470); format: biochemical, Homo sapiens
[27] = viability loss in HepG2 hepatoma cells – cell-based, ATP luminescence, cherry-pick, activator set 2, cytotoxicity control, dose response (AID 1053143); format: functional
[28] = OVCAR-3 cell viability loss – plate reader, dry powder samples, PAX8 inhibitor project, dose response (AID 743044); format: functional, cell-based
[29] = OVCAR8 cell viability loss – plate reader, dry powder samples, PAX8 project, dose response (AID 743197); format: functional, cell-based; settings: OVCAR-8
[30] = molecular target: Paired box protein Pax-8 (Homo sapiens, UniProt Q06710); test: PAX8 transcriptional activity inhibition in RMG-I – RMG-I cells, luciferase, cherry-pick, dose response (AID 687027); format: functional, cell-based;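 also: luciferase reporter driven by Pax8 target thyroperoxidase promoter measured by SteadyGlo luminescence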
[31] = IGROV1 cell killing – plate reader, dry powder samples, PAX8 inhibitor project, dose response (AID 743043); format: functional, cell-based; settings: IGROV-1
[32] = A2780 cell killing – plate reader, dry powder samples, cytotoxicity control, dose response (AID 743046); format: functional, cell-based
[33] = general cell-killing toxicity readout – plate reader, dry powder samples, cytotoxicity control for PAX8 inhibitor project, dose response (AID 743021); format: functional, cell-based
[34] = CMV-driven luciferase expression suppression in HEK293 – cell-based, luminescence, dry powder, counter-screen for Pax8 inhibitor project, dose response (AID 743020); format: functional
[35] = molecular target: Endoplasmic reticulum aminopeptidase 1 (Homo sapiens, UniProt Q9NZ08); test: inhibition of human ERAP1 enzyme activity – biochemical, cherry-pick, set 2, plate reader, dose response (AID 743314)
[36] = Counterscreen for antagonists of the human trace amine associated receptor 1 (hTAAR1): Fluorescence-based cell-based high throughput dose response assay to identify nonselective Ga16 antagonists.; format: functional
[37] = Luminescence Cell-Based Dose Retest to Confirm Inhibitors of Cancer Stem Cells. [Related pubchem assays (depositor defined):AID2717, AID2721]; format: functional; settings: Homo sapiens
[38] = Counterscreen for […] of the human trace amine associated receptor 1 (TAAR1): Fluorescence-based cell-based high throughput dose response assay to identify nonselective Ga16 agonists.; format: functional
[39] = Late stage assay provider results from the probe development effort to identify inhibitors of the Plasmodium falciparum M17 Leucine Aminopeptidase (M17LAP): radiolabel-based cell-based dose response assay to identify compounds that inhibit P. falciparum growth in RBCs Set 2.; format: functional
[40] = luciferase reporter signal reduction – luminescence, H4-C neuroglioblastoma cells, dose response (AID 2458); format: functional, cell-based;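 also: H4 neuroglioblastoma cells stably carrying a luciferase reporter gene fusion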
[41] = alpha-synuclein stem-loop luciferase translation blockers – H4 neuroglioma cells, luminescence, confirmation (AID 1988); format: functional, cell-based
[42] = HEK-293T viability loss after treatment – luminescence, T-cell screen hits, cytotoxicity control for TCR NF-kB inhibitor project, dose response (AID 489026); format: functional, cell-based;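 also: cells exposed to compound about 14 hours before the viability readout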
[43] = luciferase reporter signal suppression in cells – H4 neuroglioma cells, luminescence, dose response (AID 1990); format: functional, cell-based
[44] = system: P388/ADR; test: cells; format: functional; settings: Mus musculus
[45] = system: SN12K1; test: cells; format: functional; settings: Homo sapiens
[46] = system: P388; test: cells; format: functional; settings: Mus musculus
[47] = cells; format: functional, cell-based
[48] = alpha-synuclein stem-loop translation blockers – luminescence, H4 neuroglioblastoma cells, dose confirmation, confirmation (AID 2454); format: functional, cell-based;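 also: H4 neuroglioblastoma cells carrying an alpha-synuclein 5'UTR luciferase reporter; potency for inhibition of the luciferase signal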
[49] = rescue of ΔF508 CFTR function, airway epithelium – human bronchial epithelial cells, plate reader, cherry-pick, two tests, dose response (AID 743267); format: functional, cell-based

Cc1c(C)c2c(OCC(=O)N[C@@H](C)C(=O)O)cc3c(c2oc1=O)CCC(C)(C)O3
IC50 [1]: > 59.6 µM (inactive)
IC50 [2]: > 59.6 µM (inactive)
IC50 [3]: > 59.6 µM (inactive)

O=C(NCCc1nc2ccccc2[nH]1)/C(=C/c1ccc2c(c1)OCO2)NC(=O)c1ccc(Cl)cc1Cl
IC50 [4]: > 69.5 µM (inactive)
IC50 [5]: > 69.5 µM (inactive)

O=C(O)c1cc(-c2cccnc2)nc2ccc(Br)cc12
IC50 [6]: > 138 µM (inactive)
IC50 [7]: 13.8 µM (inactive)

O=C(Nc1ccc(Cc2ccncc2)cc1)c1cccs1
EC50 [8]: > 50 µM (active)
AC50 [9]: 26.3 µM (active)

C=CCn1c(-c2ccc(N)cc2)nc2ccccc21
IC50 [10]: > 0.37 µM (active)

O=c1c(Cl)c(NCC2CCCO2)cnn1C12CC3CC(CC(C3)C1)C2 (stereo not drawn)
EC50 [11]: > 29.9 µM (inactive)
IC50 [12]: > 29.9 µM (inactive)

COC(=O)c1ccc2nc(NC(=O)C3CC3)sc2c1
IC50 [13]: > 100 µM (inactive)
IC50 [14]: 49.2 µM (inactive)
IC50 [15]: 3.82 µM (active)

CN(C)c1ccc(O)c2c1CC1CC3[C@@H](N(C)C)C(=O)C(C(N)=O)C(=O)[C@]3(O)C(=O)C1C2=O (stereo partly drawn)
AC50 [16]: < 0.26 µM (active)
CC50 [17]: 29 µM (active)
AC50 [18]: < 0.26 µM (active)
AC50 [19]: < 0.26 µM (active)
AC50 [20]: 1.35 µM (active)
AC50 [21]: 61.2 µM (active)
EC50 [22]: 0.659 µM (active)
EC50 [23]: 92.5 µM (inactive)
AC50 [24]: 11.8 µM (active)
AC50 [25]: < 0.26 µM (active)

C=CS(=O)(=O)c1c2cc(OC)ccc2nc2ccc(OC)cc12
AC50 [26]: 0.682 µM (active)
AC50 [27]: 25.4 µM (active)

C[C@@H]1CN([C@@H](C)CO)C(=O)c2cc(NC(=O)Nc3ccc(C(F)(F)F)cc3)ccc2O[C@@H](C)CCCCO[C@H]1CN(C)Cc1ccncc1
AC50 [28]: 29.5 µM (active)
AC50 [29]: 53.8 µM (active)
AC50 [30]: 8.41 µM (active)
AC50 [31]: 53.7 µM (active)

C[C@@H]1CN([C@@H](C)CO)S(=O)(=O)c2ccc(C#CC3CCCC3)cc2O[C@H]1CN(C)Cc1cccnc1
AC50 [32]: 15 µM (active)
AC50 [28]: 25.7 µM (active)
AC50 [30]: 8.33 µM (active)
AC50 [33]: 57.1 µM (active)
AC50 [34]: 47.5 µM (active)

O=C(NCC1CC1)[C@@H]1[C@@H](CO)[C@@H]2Cn3c(ccc(/C=C/c4ccccc4)c3=O)[C@H]1N2C(=O)C1CC1
AC50 [35]: 14.7 µM (active)

Cc1cc(Br)c(OCc2ccc(C(=O)N/N=C/c3ccc[nH]3)cc2)c(Br)c1
IC50 [36]: > 29.9 µM (inactive)
AC50 [37]: 0.228 µM (active)
AC50 [30]: 0.693 µM (active)
EC50 [38]: > 29.9 µM (inactive)
AC50 [33]: 59.4 µM (active)

O=C(Cc1ccc(OCc2ccccc2)cc1)NO
IC50 [39]: 4.7 µM (active)

CC(=O)O[C@H]1C(=O)[C@@]2(C)[C@H]([C@H](OC(=O)c3ccccc3)[C@]3(O)C[C@H](OC(=O)[C@H](O)[C@@H](NC(=O)c4ccccc4)c4ccccc4)C(C)=C1C3(C)C)[C@]1(OC(C)=O)CO[C@@H]1C[C@@H]2O [PACLITAXEL]
EC50 [40]: 0.039 µM (active)
EC50 [41]: < 0.1 µM (active)
IC50 [42]: > 80 µM (inactive)
EC50 [43]: 10.6 µM (active)
GI50 [44]: 0.605 µM (active)
GI50 [45]: 0.00327 µM (active)
GI50 [46]: 0.00569 µM (active)
EC50 [47]: 0.086 µM (active)
EC50 [48]: 0.069 µM (active)
AC50 [49]: 3.59 µM (active)
